Data: PMC11672551, “Cyclic Ruthenium-Peptide Prodrugs Penetrate the Blood–Brain Barrier and Attack Glioblastoma upon Light Activation in Orthotopic Zebrafish Tumor Models” (ACS Central Science, 2024)
Read-outs that look alike come from different tables or passages of the source.

System: U87MG cells
Assay: 2D cytotoxicity assay, SRB end point, dark vs green light
Format: cell-based, human
Settings: normoxia (21% O2); for EC50: SRB at 96 h
Experimental: To test the in vitro phototoxicity of the three complexes toward 2D monolayer U87MG cells, a cell viability assay was undertaken as follows: the cells were seeded at t = 0, treated at t = 24 h, irradiated with green light (520 nm, 13.1 J cm^–2) at t = 48 h without refreshing the medium (drug-to-light interval = 24 h), further incubated in the dark for 48 h, and counted at t = 96 h with a sulforhodamine B (SRB) cell quantification end point assay.[45] Half-maximal effective concentrations (EC50 in μM), compared to untreated control, and photoindex (PI) values, defined as EC50,dark/ EC50,light, were calculated to characterize the toxicity and light activation of each Ru-peptide conjugate. […] However, a much stronger discrepancy appeared in the 2D toxicity data in hypoxic conditions (Table 2, Figure S22b). The phototherapeutic properties of Ru-p(HH) in the green light group were the poorest, leading to a PI of only 1.3. […] Ru-p(MH) stood somewhere between these values with a PI of 1.9 under hypoxia. […] The loss of activity of Ru-p(HH) under hypoxia is consistent with the hypothesis of a PDT pathway, while Ru-p(MM) keeping appreciable phototoxicity under hypoxia better fits the hypothesis of a PACT cell-killing mechanism.
U87MG cells (6000) were seeded in 96-well plates (Sarstedt, 83.3924), and each well contained 100 μL of Opti-MEM (Gibco complete medium 11058-021, supplemented with 2.5% v/v fetal calf serum (FCS), 0.2% v/v penicillin/streptomycin (P/S), and 1% v/v glutamine). They were then placed either in a normoxic (21% O2) or hypoxic (1.0% O2) incubator; 24 h later, different concentrations of Ru-p(HH), Ru-p(MH), or Ru-p(MM) dissolved in Opti-MEM (100 μL) were added to the wells in triplicate. For each complex, one dark and one light plate were involved. Each plate was further incubated in the dark for 24 h (DLI). After that, one plate was irradiated with green light (520 nm) for 20 min at 37 °C for normoxia (dose = 13.1 J cm^–2) or 30 min for hypoxia (dose = 13.0 J cm^–2), while the other plate was kept in the dark. The cells were further incubated for another 2 days in normoxic or hypoxic conditions, respectively. Finally, 100 μL of cold trichloroacetic acid (10% w/v) was added to each well to fix the cells, and all plates were then transferred to a 4 °C refrigerator for 48 h before an SRB cell quantification end point assay was performed.[45] All experiments were conducted in biologically independent triplicate.
Hypoxic cell models in vitro: all cells were incubated and passaged in a dark hypoxic incubator (1% O2) for at least 2 weeks before all hypoxia studies. Adding chemicals to the cells had to be performed in air; however, the cell-growing medium was kept in the hypoxia incubator for at least 2 days before the addition to hypoxic cells, and all hypoxic light irradiations were performed inside the hypoxic incubator set at 1.0% O2.

## [Ru(Ph2phen)2(bpy)]Cl2
  PI, photoindex EC50,dark/EC50,light: 74.4
520 nm, 10.9 mW cm–2, 13.1 J cm–2, 20 min, DLI 24 h, n = 3, read-out: EC50, green light
  EC50: 0.18 µM
Light dose 0, 24 h treatment, no wash, n = 3, read-out: EC50, dark
  EC50: 13.4 µM
